In patent publication US9540351B2, “Pharmaceutically acceptable salts of 3,5-diaminopyrazole kinase inhibitors” (AXIKIN PHARMACEUTICALS, INC., priority 2013, dated 2017) one finds solubility and inhibition data, which are given here for nine compounds.

Read-outs that look alike come from different tables or passages of the source.

Data set [1] can be described thus: Solubility assessment of salts in water. It is filed as physicochemical. Conditions: thermodynamic from solid, read-out: Aqueous Solubility. The procedure: Solubility assessment: A preweighed amount of powder of a salt was treated with water to target a nominal concentration of 10 mg/mL. If a clear solution was obtained, then the solubility was noted as ≧10 mg/mL. If a suspension was obtained, additional water was added to target a nominal concentration of 5 mg/mL. If still a suspension after the addition of water, additional water was added to target a lower nominal concentration. If a suspension was still observed at a nominal concentration of 0.1 mg/mL, the suspension was filtered through a 0.4 micron filter, and the filtrate was analyzed by RP-HPLC to ascertain the solubility range of the salt.

The target in data set [2] is T1, kinase domain protein of RC kinase (Homo sapiens, UniProt Q56UN5).
T1 sequence (Q56UN5 1061-1324 limits assumed): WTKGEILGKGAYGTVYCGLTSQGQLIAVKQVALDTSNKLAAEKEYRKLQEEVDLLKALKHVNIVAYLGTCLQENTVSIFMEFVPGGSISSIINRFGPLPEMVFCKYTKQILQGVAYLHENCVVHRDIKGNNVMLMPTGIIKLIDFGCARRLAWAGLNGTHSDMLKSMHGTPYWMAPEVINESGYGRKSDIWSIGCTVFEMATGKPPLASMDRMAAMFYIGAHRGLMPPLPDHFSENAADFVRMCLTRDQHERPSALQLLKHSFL
Put plainly: Enzymatic assay for kinase inhibitory activity (Crebtide substrate, Lance readout). It is filed as biochemical. The note with it: free base compounds, inhibition of RC kinase activity at 1 μM. The procedure:
Solutions of a test compound, Crebtide (a substrate), a kinase, and ATP were prepared using 1×MAPK Buffer (50 mM HEPES, 1 mM EGTA, […], 10 mM MgCl2, 2 mM DTT, and 0.01% Tween 20).
To each well, the test compound (1 μL) was first added (in duplicate) to reach a final concentration of 1 μM or 1×IC50 of the compound. The kinase (5 μL) was then added to each well to reach a final concentration of […] for the kinase domain or […] for the full-length domain. Each plate included a positive and negative controls in duplicate wells. Crebtide (2.5 μL) was then added to each well in duplicate to reach a final concentration of 50 nM. If the full-length kinase was used, the plates were incubated for 45 min at room temperature before proceeding further. ATP (2.5 μL) was added to each well to reach a final concentration of 1 μM for the kinase domain and 3 μM for the full-length.
After the addition of ATP, the plates were incubated for 45 min at room temperature. During the incubation, an EDTA solution (40 mM) and anti-Crebtide ([…]) were prepared. Additionally, a detection buffer stock solution was diluted ten fold before use.
After the incubation, the anti-Crebtide (5 μL) and EDTA (5 μL) were added to each well to reach their final concentrations of […] and 10 mM, respectively. The plates were allowed to develop at room temperature for 45 min. The plates were then read at 665 nm and 615 nm using Perkin Elmer Lance machine.
As will be appreciated by those skilled in the are, the activity of a particular salt provided herein will be the same as the activity for the parent free-base compound.

A word on the solubility: it is how much of the substance goes into solution per volume. What is called inhibition is the change of the read-out against control, counted positive when it falls. On to `NC(=O)C1=C(NCc2ccc(O)cc2)N=NC1Nc1cccc(Cl)c1` (stereo not drawn) [Compound 1, 3-((3-chlorophenyl)amino)-5-((4-hydroxybenzyl)amino)-3H-pyrazole-4-carboxamide], for which the figures for the solubility in data set [1] (Free base) and in data set [1] (HCl salt) were less than 40 µg/mL and greater than 63 µg/mL, respectively. The same compound registered an inhibition at 1 µM in data set [2] of no less than 50%.
For `CN1CCN(c2ccc(NC3N=NC(NCc4ccc(O)cc4)=C3C(N)=O)cc2)CC1` (stereo not drawn) [Compound 2, 5-((4-hydroxybenzyl)amino)-3-((4-(4-methylpiperazin-1-yl)phenyl)amino)-3H-pyrazole-4-carboxamide] the same measures were less than 40 µg/mL, greater than 1000 µg/mL and no less than 50%.
For `NC(=O)C1=C(NCc2ccc(O)cc2)N=NC1Nc1ccc(CN2CCOCC2)cc1` (stereo not drawn) [Compound 3, 5-((4-hydroxybenzyl)amino)-3-((4-(morpholinomethyl)phenyl)amino)-3H-pyrazole-4-carboxamide] the same measures were less than 40 µg/mL, greater than 500 µg/mL and no less than 50%.
`NC(=O)c1c(Nc2ccc(N3CCOCC3)cc2)n[nH]c1NCc1ccc(O)cc1` [Compound 4, 5-((4-hydroxybenzyl)amino)-3-((4-morpholinophenyl)amino)-3H-pyrazole-4-carboxamide]: the solubility in data set [1] (Free base) is less than 100 µg/mL; in data set [1] (HBr salt) it was greater than 10000 µg/mL; in data set [1] (HCl salt), greater than 10000 µg/mL; in data set [1] (Phosphoric acid salt) it was less than 200 µg/mL; in data set [1] (Sulfuric acid salt), greater than 2000 µg/mL; in data set [1] (Trifluoroacetic acid salt), less than 200 µg/mL. Further, the solubility in data set [1] (acetic acid salt) was less than 500 µg/mL; in data set [1] (camphorsulfonic acid salt), less than 200 µg/mL; in data set [1] (formic acid salt) it was less than 500 µg/mL. Besides, the inhibition at 1 µM in data set [2] was no less than 50%.
On to `NC(=O)C1=C(NCc2ccc(O)cc2)N=NC1Nc1ccc(N2CCOCC2)nc1` (stereo not drawn) [Compound 5, 5-((4-hydroxybenzyl)amino)-3-((6-morpholinopyridin-3-yl)amino)-3H-pyrazole-4-carboxamide], for which the solubility in data set [1] (Free base) is less than 100 µg/mL; in data set [1] (HCl salt) it was greater than 2000 µg/mL; in data set [1] (Methane sulfonic acid salt), greater than 10000 µg/mL; in data set [1] (Phosphoric acid salt) it was greater than 100 µg/mL; in data set [1] (Sulfuric acid salt) it was greater than 10 µg/mL; in data set [1] (Trifluoroacetic acid salt), greater than 1000 µg/mL. The inhibition at 1 µM in data set [2] was no less than 50%.
Take `NC(=O)C1=C(NCc2ccc(O)cc2)N=NC1Nc1ccc(-c2ccccn2)cc1` (stereo not drawn) [Compound 6, 5-((4-hydroxybenzyl)amino)-3-((4-(pyridin-2-yl)phenyl)amino)-3H-pyrazole-4-carboxamide]: the solubility in data set [1] (Free base) is less than 100 µg/mL; in data set [1] (Phosphoric acid salt), greater than 20000 µg/mL; in data set [1] (Sulfuric acid salt), less than 500 µg/mL; in data set [1] (Trifluoroacetic acid salt), less than 500 µg/mL; in data set [1] (camphorsulfonic acid salt), less than 500 µg/mL; in data set [1] (p-toluenesulfonic acid salt), less than 200 µg/mL. Also, in data set [1] (tartaric acid salt), the solubility was less than 200 µg/mL. For the same compound, the inhibition at 1 µM in data set [2] is no less than 50%.
For the compound `CC(C)N1CCN(c2ccc(Nc3n[nH]c(NCc4ccc(O)cc4)c3C(N)=O)cc2)CC1` [Compound 7, 5-((4-hydroxybenzyl)amino)-3-((4-(4-isopropylpiperazin-1-yl)phenyl)amino)-3H-pyrazole-4-carboxamide], the results for the solubility in data set [1] (Free base), in data set [1] (HCl salt) and in data set [1] (Phosphoric acid salt) were less than 40 µg/mL, greater than 500 µg/mL and greater than 1000 µg/mL, respectively. For the same compound, the inhibition at 1 µM in data set [2] was no less than 50%.
For `NC(=O)C1=C(NCc2ccc(O)cc2)N=NC1Nc1ccc(-n2ccnc2)cc1` (stereo not drawn) [Compound 8, 3-((4-(1H-imidazol-1-yl)phenyl)amino)-5-((4-hydroxybenzyl)amino)-3H-pyrazole-4-carboxamide], in that order: less than 40 µg/mL, greater than 500 µg/mL, greater than 1000 µg/mL and no less than 50%.
Turning to `NC(=O)c1c(Nc2ccc3[nH]ncc3c2)n[nH]c1NCc1ccc(O)cc1` [Compound 9, 3-((1H-indazol-5-yl)amino)-5-((4-hydroxybenzyl)amino)-3H-pyrazole-4-carboxamide], the solubility in data set [1] (Free base) is less than 40 µg/mL; in data set [1] (HCl salt), less than 100 µg/mL. The compound further displayed an inhibition at 1 µM in data set [2] of no less than 50%.
